In ChEMBL document CHEMBL1201862, “PubChem BioAssay data set” (2004):
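Where inhibition never reached the appropriate level, the endpoint shown equals the highest concentration tested. Otherwise, values were interpolated linearly from a five-concentration, 48-hour dose response in 96-well plates. GI50 marks 50% less growth.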 The source made the active and inactive calls. Rule as the data show it: active = GI50 up to about 1.1 µM and inactive = higher.

Key:
Test in all cases: DTP human tumour cell line panel, 48 h
DU-145 = tested on: DU-145
UACC-62 = tested on: UACC-62
SK-OV-3 = tested on: SK-OV-3
KM12 = tested on: KM12
T47D = tested on: T47D
Hs-578T = tested on: Hs-578T
MDA-N = tested on: MDA-N
LOX IMVI = tested on: LOX IMVI
M14 = tested on: M14
SR = tested on: SR
OVCAR-5 = tested on: OVCAR-5
IGROV-1 = tested on: IGROV-1
A549 = tested on: A549
NCI-H23 = tested on: NCI-H23
786-0 = tested on: 786-0
OVCAR-4 = tested on: OVCAR-4
MCF7 = tested on: MCF7
SNB-75 = tested on: SNB-75
MDA-MB-231 = tested on: MDA-MB-231
ACHN = tested on: ACHN

Measured: GI50

CN1c2ccc(O)c(O)c2-c2cc(O)cc3c2C1CCC3 (stereo not given)
inactive: DU-145 16 µM | UACC-62 16.3 µM | SK-OV-3 51.9 µM | KM12 21.4 µM | T47D 15.9 µM | Hs-578T 35.2 µM | MDA-N 16.9 µM | LOX IMVI 11.2 µM | M14 16.2 µM | SR 7 µM | OVCAR-5 24.5 µM | IGROV-1 11.6 µM | A549 29.9 µM | NCI-H23 22.9 µM | 786-0 15.2 µM | OVCAR-4 13.4 µM | MCF7 14.2 µM | SNB-75 16.3 µM | MDA-MB-231 23.7 µM | ACHN 16.7 µM
